{"source": "patent US9708334B2", "about": "“Substituted 2,4,5,6-tetrahydropyrrolo[3,4-c]pyrazole and 4,5,6,7-tetrahydro-2H-pyrazolo[4,3-c]pyridine compounds as GlyT1 inhibitors” (DART NEUROSCIENCE (CAYMAN) LTD., priority 2014, dated 2017)", "data": [{"molecular_target": "T1, GlyT1 (Homo sapiens, UniProt P48067)", "T1 construct": "expressed in transfected cells", "T1 sequence (P48067 1-706)": "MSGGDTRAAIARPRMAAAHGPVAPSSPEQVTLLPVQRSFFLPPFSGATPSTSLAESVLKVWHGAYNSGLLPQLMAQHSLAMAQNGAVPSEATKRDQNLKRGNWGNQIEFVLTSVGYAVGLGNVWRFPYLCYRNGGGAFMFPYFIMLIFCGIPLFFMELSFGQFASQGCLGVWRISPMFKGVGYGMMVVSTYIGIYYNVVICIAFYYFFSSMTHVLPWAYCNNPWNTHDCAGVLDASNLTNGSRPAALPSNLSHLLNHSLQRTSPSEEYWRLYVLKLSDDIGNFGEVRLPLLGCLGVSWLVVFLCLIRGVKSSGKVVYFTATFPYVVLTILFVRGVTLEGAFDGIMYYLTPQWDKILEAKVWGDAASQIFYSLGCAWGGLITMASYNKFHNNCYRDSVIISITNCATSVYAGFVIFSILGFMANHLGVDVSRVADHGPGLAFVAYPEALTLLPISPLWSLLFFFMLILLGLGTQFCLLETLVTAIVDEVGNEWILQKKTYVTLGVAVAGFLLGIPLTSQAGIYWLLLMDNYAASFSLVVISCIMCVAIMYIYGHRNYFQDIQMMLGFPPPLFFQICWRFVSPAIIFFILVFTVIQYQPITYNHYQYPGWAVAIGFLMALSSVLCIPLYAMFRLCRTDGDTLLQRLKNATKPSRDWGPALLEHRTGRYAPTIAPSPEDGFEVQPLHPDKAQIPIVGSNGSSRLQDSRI", "experiment": "Glycine Transporter 1 (GlyT1) uptake assay, scintillation proximity assay of [14C]-glycine uptake", "assay_type": "cell-based", "conditions": "SPA, four parameter logistic fit, read-out: GlyT1 (pIC50) (converted)", "procedure,_shortened": "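IC50 values derive from four-parameter logistic curves fitted to dose-response data. Uptake of [14C]-glycine measured in scintillation proximity format.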", "units": {"IC50": "nM"}, "values": [{"molecule": "CCc1cc(-n2cc3c(n2)CN(C(=O)c2cc(C#N)ccc2N2CCC(F)(F)CC2)C3)ccn1", "note": "[Example 546, 4-(4 4-Difluoropiperidin-1-yl)-3-[2-(2-ethylpyridin-4-yl)-2H 4H 5H 6H-pyrrolo[3,4-c]pyrazole-5-carbonyl]benzonitrile]", "IC50": "< 100"}, {"molecule": "Cc1cccc(-n2cc3c(n2)CN(C(=O)c2c(OCC(F)(F)F)ccc(C#N)c2Cl)C3)n1", "note": "[Example 22, 2-Chloro-3-[2-(6-methylpyridin-2-yl)-2H 4H 5H 6H-pyrrolo[3,4-c]pyrazole-5-carbonyl]-4-(2 2 2-trifluoroethoxy)benzonitrile]", "IC50": "100 to 1000"}, {"molecule": "N#Cc1ccc(OCC(F)(F)F)c(C(=O)N2CCc3nn(-c4ccc(F)cc4)cc3C2)c1Cl", "note": "[Example 223, 2-Chloro-3-[2-(4-fluorophenyl)-2H 4H 5H 6H 7H-pyrazolo[4,3-c]pyridine-5-carbonyl]-4-(2 2 2-trifluoroethoxy)benzonitrile]", "IC50": "1000 to 10000"}, {"molecule": "CC(C)Oc1ccc(S(C)(=O)=O)cc1C(=O)N1Cc2cn(-c3cc(Cl)ccc3F)nc2C1", "note": "[Example 62, 2-(5-Chloro-2-fluorophenyl)-5-[5-methanesulfonyl-2-(propan-2-yloxy)benzoyl]-2H 4H 5H 6H-pyrrolo[3,4-c]pyrazole]", "IC50": "< 100"}, {"molecule": "CC(C)Oc1ccc(C#N)cc1C(=O)N1Cc2cn(C3CCOCC3)nc2C1", "note": "[Example 408, 3-[2-(Oxan-4-yl)-2H 4H 5H 6H-pyrrolo[3,4-c]pyrazole-5-carbonyl]-4-(propan-2-yloxy)benzonitrile]", "IC50": "100 to 1000"}, {"molecule": "C[C@H](Oc1ccc(S(C)(=O)=O)cc1C(=O)N1Cc2cn(-c3ccc(F)c(Cl)c3)nc2C1)C(F)(F)F", "note": "[Example 35, 2-(3-Chloro-4-fluorophenyl)-5-(5-methanesulfonyl-2-{[(2S)-1 1 1-trifluoropropan-2-yl]oxy}benzoyl)-2H 4H 5H 6H-pyrrolo[3,4-c]pyrazole]", "IC50": "< 100"}, {"molecule": "CCS(=O)(=O)c1ccc(-c2ccccc2)c(C(=O)N2Cc3cn(-c4ccnc(C)c4)nc3C2)c1", "note": "[Example 567, 4-{5-[5-(Ethanesulfonyl)-2-phenylbenzoyl]-2H 4H 5H 6H-pyrrolo[3,4-c]pyrazol-2-yl}-2-methylpyridine]", "IC50": "< 100"}, {"molecule": "COc1c(C#N)ccc(OCC(F)(F)F)c1C(=O)N1Cc2cn(-c3cncc(F)c3)nc2C1", "note": "[Example 311, 3-[2-(5-Fluoropyridin-3-yl)-2H 4H 5H 6H-pyrrolo[3,4-c]pyrazole-5-carbonyl]-2-methoxy-4-(2 2 2-trifluoroethoxy)benzonitrile]", "IC50": "< 100"}, {"molecule": "COc1c(C#N)ccc(OCC(C)(C)C)c1C(=O)N1Cc2cn(-c3ccc(F)cn3)nc2C1", "note": "[Example 320, 4-(2 2-Dimethylpropoxy)-3-[2-(5-fluoropyridin-2-yl)-2H 4H 5H 6H-pyrrolo[3,4-c]pyrazole-5-carbonyl]-2-methoxybenzonitrile]", "IC50": "< 100"}, {"molecule": "CS(=O)(=O)c1ccc(N2CCCCC2)c(C(=O)N2Cc3cn(-c4ccc(F)cc4)nc3C2)c1", "note": "[Example 363, 1-{2-[2-(4-Fluorophenyl)-2H 4H 5H 6H-pyrrolo[3,4-c]pyrazole-5-carbonyl]-4-methanesulfonylphenyl}piperidine]", "IC50": "< 100"}, {"molecule": "CC(C)Oc1ccc(C#N)cc1C(=O)N1Cc2cn(-c3ccnc(C4CCC4)c3)nc2C1", "note": "[Example 459, 3-[2-(2-Cyclobutylpyridin-4-yl)-2H 4H 5H 6H-pyrrolo[3,4-c]pyrazole-5-carbonyl]-4-(propan-2-yloxy)benzonitrile]", "IC50": "< 100"}, {"molecule": "COc1c(C#N)ccc(OC(C)C(F)(F)F)c1C(=O)N1CCc2nn(-c3ccncc3)cc2C1", "note": "(centres unmarked) [Example 220, 2-Methoxy-3-[2-(pyridin-4-yl)-2H 4H 5H 6H 7H-pyrazolo[4,3-c]pyridine-5-carbonyl]-4-[(1 1 1-trifluoropropan-2-yl)oxy]benzonitrile]", "IC50": "< 100"}, {"molecule": "CCS(=O)(=O)c1ccc(OC(C)C)c(C(=O)N2Cc3cn(-c4cccc(C)c4)nc3C2)c1", "note": "[Example 83, 5-[5-(Ethanesulfonyl)-2-(propan-2-yloxy)benzoyl]-2-(3-methylphenyl)-2H 4H 5H 6H-pyrrolo[3,4-c]pyrazole]", "IC50": "< 100"}, {"molecule": "Cn1ncc2c1CN(C(=O)c1cc(S(C)(=O)=O)ccc1OCC1CC1)C2", "note": "[Example 157, 5-[2-(Cyclopropylmethoxy)-5-methanesulfonylbenzoyl]-1-methyl-1H 4H 5H 6H-pyrrolo[3,4-c]pyrazole]", "IC50": "> 10000"}, {"molecule": "CC(C)Oc1ccc(C#N)cc1C(=O)N1Cc2cn(-c3ccnc(C4CC4)c3)nc2C1", "note": "[Example 405, 3-[2-(2-Cyclopropylpyridin-4-yl)-2H 4H 5H 6H-pyrrolo[3,4-c]pyrazole-5-carbonyl]-4-(propan-2-yloxy)benzonitrile]", "IC50": "< 100"}, {"molecule": "CC[C@H](C)Cn1cc2c(n1)CN(C(=O)c1cc(C#N)ccc1OC(C)C)C2", "note": "[Example 416, 3-{2-[(2S)-2-Methylbutyl]-2H 4H 5H 6H-pyrrolo[3,4-c]pyrazole-5-carbonyl}-4-(propan-2-yloxy)benzonitrile]", "IC50": "100 to 1000"}, {"molecule": "C[C@H](Oc1ccc(C#N)cc1C(=O)N1Cc2cn(CC3CCOCC3)nc2C1)C(F)(F)F", "note": "[Example 396, 3-[2-(Oxan-4-ylmethyl)-2H 4H 5H 6H-pyrrolo[3,4-c]pyrazole-5-carbonyl]-4-{[(2S)-1 1 1-trifluoropropan-2-yl]oxy}benzonitrile]", "IC50": "100 to 1000"}, {"molecule": "COc1c(C#N)ccc(OC(C)(C)C(F)(F)F)c1C(=O)N1Cc2cn(-c3ccc(F)cc3)nc2C1", "note": "[Example 516, 3-[2-(4-Fluorophenyl)-2H 4H 5H 6H-pyrrolo[3,4-c]pyrazole-5-carbonyl]-2-methoxy-4-[(1 1 1-trifluoro-2-methylpropan-2-yl)oxy]benzonitrile]", "IC50": "< 100"}, {"molecule": "COc1c(C#N)ccc(OCC(F)(F)F)c1C(=O)N1Cc2cn(-c3ccc(F)c(C)n3)nc2C1", "note": "[Example 533, 3-[2-(5-Fluoro-6-methylpyridin-2-yl)-2H 4H 5H 6H-pyrrolo[3,4-c]pyrazole-5-carbonyl]-2-methoxy-4-(2 2 2-trifluoroethoxy)benzonitrile]", "IC50": "< 100"}, {"molecule": "CS(=O)(=O)c1ccc(OCC(F)(F)F)c(C(=O)N2Cc3cn(-c4ccc(F)cc4)nc3C2)c1", "note": "[Example 103, 2-(4-Fluorophenyl)-5-[5-methanesulfonyl-2-(2 2 2-trifluoroethoxy)benzoyl]-2H 4H 5H 6H-pyrrolo[3,4-c]pyrazole]", "IC50": "< 100"}, {"molecule": "COc1c(C#N)ccc(OCC(F)F)c1C(=O)N1Cc2cn(-c3ccc(F)c(C)n3)nc2C1", "note": "[Example 534, 4-(2 2-Difluoroethoxy)-3-[2-(5-fluoro-6-methylpyridin-2-yl)-2H 4H 5H 6H-pyrrolo[3,4-c]pyrazole-5-carbonyl]-2-methoxybenzonitrile]", "IC50": "100 to 1000"}, {"molecule": "CCOc1cc(-n2cc3c(n2)CN(C(=O)c2cc(C#N)ccc2O[C@@H](C)C(F)(F)F)C3)ccn1", "note": "[Example 371, 3-[2-(2-Ethoxypyridin-4-yl)-2H 4H 5H 6H-pyrrolo[3,4-c]pyrazole-5-carbonyl]-4-{[(2S)-1 1 1-trifluoropropan-2-yl]oxy}benzonitrile]", "IC50": "100 to 1000"}, {"molecule": "CC(Oc1ccc(C(N)=O)c(Cl)c1C(=O)N1CCc2nn(-c3ccc(F)cc3)cc2C1)C(F)(F)F", "note": "(centres unmarked) [Example 196, 2-Chloro-3-[2-(4-fluorophenyl)-2H 4H 5H 6H 7H-pyrazolo[4,3-c]pyridine-5-carbonyl]-4-[(1 1 1-trifluoropropan-2-yl)oxy]benzamide]", "IC50": "100 to 1000"}]}]}
